Structures are written as SMILES. pIC50: −log10 of the molar value. Counter-ions that a name gives are not always drawn.

This assay deals with FAK (Homo sapiens, UniProt Q05397). Kind of assay: biochemical.
FAK, sequence (Q05397 whole entry): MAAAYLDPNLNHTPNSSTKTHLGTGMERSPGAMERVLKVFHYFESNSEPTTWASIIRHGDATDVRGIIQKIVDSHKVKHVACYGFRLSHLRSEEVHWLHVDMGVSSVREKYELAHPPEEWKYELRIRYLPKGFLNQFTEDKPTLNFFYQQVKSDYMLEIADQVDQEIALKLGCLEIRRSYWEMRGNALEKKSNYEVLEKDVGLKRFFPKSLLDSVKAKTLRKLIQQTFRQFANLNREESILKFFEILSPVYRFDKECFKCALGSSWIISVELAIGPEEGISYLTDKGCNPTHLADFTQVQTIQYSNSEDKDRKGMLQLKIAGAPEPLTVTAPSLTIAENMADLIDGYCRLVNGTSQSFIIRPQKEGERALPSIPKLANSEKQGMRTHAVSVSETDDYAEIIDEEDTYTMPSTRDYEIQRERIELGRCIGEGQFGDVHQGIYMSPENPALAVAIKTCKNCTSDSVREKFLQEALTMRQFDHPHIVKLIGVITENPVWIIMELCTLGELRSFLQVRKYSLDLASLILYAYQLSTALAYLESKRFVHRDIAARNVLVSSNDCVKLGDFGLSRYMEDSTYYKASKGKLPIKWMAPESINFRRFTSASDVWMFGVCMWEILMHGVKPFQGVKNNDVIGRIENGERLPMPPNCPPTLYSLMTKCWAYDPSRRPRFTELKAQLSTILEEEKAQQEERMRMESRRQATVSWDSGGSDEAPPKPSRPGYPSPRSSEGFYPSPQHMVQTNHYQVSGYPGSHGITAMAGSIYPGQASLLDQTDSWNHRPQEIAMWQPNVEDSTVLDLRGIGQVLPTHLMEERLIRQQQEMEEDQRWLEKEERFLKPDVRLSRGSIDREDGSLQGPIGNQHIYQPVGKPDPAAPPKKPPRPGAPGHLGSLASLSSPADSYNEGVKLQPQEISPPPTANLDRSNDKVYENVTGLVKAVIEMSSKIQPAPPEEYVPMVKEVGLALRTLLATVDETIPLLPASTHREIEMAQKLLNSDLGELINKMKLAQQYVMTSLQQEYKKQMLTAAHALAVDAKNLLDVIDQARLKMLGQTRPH
`CCOP(=O)(OCC)C(O)c1ccc(Nc2ncc(C(F)(F)F)c(Nc3ccccc3C(=O)NC)n2)cc1` (stereo not drawn) [Example 133, Diethyl [hydroxy(4-{[4-{[2-(methylcarbamoyl)phenyl]amino}-5-(trifluoromethyl)pyrimidin-2-yl]amino}phenyl)methyl]phosphonate trifluoroacetate] had a negative logarithm of the IC50 (pIC50) of more than 6.00.

Turning to `CCOP(=O)(Cc1ccc(Nc2ncc(C(F)(F)F)c(Nc3ccc(-c4cnn(CC(C)C)c4)cc3C(=O)NC)n2)cc1)OCC` [Example 134, Diethyl (4-{[4-({2-(methylcarbamoyl)-4-[1-(2-methylpropyl)-1H-pyrazol-4-yl]phenyl}amino)-5-(trifluoromethyl)pyrimidin-2-yl]amino}benzyl)phosphonate], the pIC50 was more than 6.00.

`CCOP(=O)(Cc1ccc(Nc2ncc(C(F)(F)F)c(Nc3ccc(-c4cnn(C[C@H](O)CO)c4)cc3C(=O)NC)n2)cc1)OCC` [Example 135, Diethyl (4-{[4-{[4-{1-[(2S)-2,3-dihydroxypropyl]-1H-pyrazol-4-yl}-2-(methylcarbamoyl)phenyl]amino}-5-(trifluoromethyl)pyrimidin-2-yl]amino}benzyl)phosphonate]: the pIC50 is more than 6.00.

`CCOP(=O)(Cc1ccc(Nc2ncc(C(F)(F)F)c(Nc3ccc(-c4cnn(C5CC(O)C5)c4)cc3C(=O)NC)n2)cc1)OCC` (stereo not drawn) [Example 136, Diethyl (4-{[4-({4-[1-(3-hydroxycyclobutyl)-1H-pyrazol-4-yl]-2-(methylcarbamoyl)phenyl}amino)-5-(trifluoromethyl)pyrimidin-2-yl]amino}benzyl)phosphonate] gave a negative-log IC50 (pIC50) of more than 6.00.

As to `CCOP(=O)(Cc1ccc(Nc2ncc(C(F)(F)F)c(Nc3ccc(-c4cnn(CCO)c4)cc3C(=O)NC)n2)cc1)OCC` [Example 145, Diethyl (4-{[4-({4-[1-(2-hydroxyethyl)-1H-pyrazol-4-yl]-2-(methylcarbamoyl)phenyl}amino)-5-(trifluoromethyl)pyrimidin-2-yl]amino}benzyl)phosphonate], the pIC50 was more than 6.00.

In the case of `CCOP(=O)(Cc1cc(F)c(Nc2ncc(C(F)(F)F)c(Nc3ccccc3C(=O)NC)n2)c(OC)c1)OCC` [Example 146, Diethyl (3-fluoro-5-methoxy-4-{[4-{[2-(methylcarbamoyl)phenyl]amino}-5-(trifluoromethyl)pyrimidin-2-yl]amino}benzyl)phosphonate], the pIC50 was more than 6.00.

With `CCOP(=O)(Cc1ccc(Nc2ncc(C(F)(F)F)c(Nc3ccc(C#N)cc3C(=O)NC)n2)cc1)OCC` [Example 150, Diethyl (4-{[4-{[4-cyano-2-(methylcarbamoyl)phenyl]amino}-5-(trifluoromethyl)pyrimidin-2-yl]amino}benzyl)phosphonate], the negative logarithm of the IC50 (pIC50) is more than 6.00.

With `CCNC(=O)c1ccccc1Nc1nc(Nc2ccc(CP(=O)(OCC)OCC)cc2)ncc1C(F)(F)F` [Example 152, Diethyl (4-{[4-{[2-(ethylcarbamoyl)phenyl]amino}-5-(trifluoromethyl)pyrimidin-2-yl]amino}benzyl)phosphonate], the negative logarithm of the IC50 (pIC50) is more than 6.00.

As for `CCNC(=O)c1ccccc1Nc1nc(Nc2ccc(CP(=O)(OCC)OCC)cc2OC)ncc1C(F)(F)F` [Example 153, Diethyl (4-{[4-{[2-(ethylcarbamoyl)phenyl]amino}-5-(trifluoromethyl)pyrimidin-2-yl]amino}-3-methoxybenzyl)phosphonate], the pIC50 is more than 6.00.

`CCOP(=O)(Cc1ccc(Nc2ncc(C(F)(F)F)c(Nc3cccc4c3C(=O)N(C)C4C)n2)cc1)OCC` (stereo not drawn) [Example 157, Diethyl [4-({4-[(1,2-dimethyl-3-oxo-2,3-dihydro-1H-isoindol-4-yl)amino]-5-(trifluoromethyl)pyrimidin-2-yl}amino)benzyl]phosphonate] had a negative-log IC50 (pIC50) of more than 6.00.

With `CCOC(c1ccc(Nc2ncc(C(F)(F)F)c(Nc3ccccc3C(=O)NC)n2)cc1)P(=O)(OCC)OCC` (stereo not drawn) [Example 159, Diethyl [ethoxy(4-{[4-{[2-(methylcarbamoyl)phenyl]amino}-5-(trifluoromethyl)pyrimidin-2-yl]amino}phenyl)methyl]phosphonate], the negative logarithm of the IC50 (pIC50) is more than 6.00.

Molecule `CCOP(=O)(OCC)C(OC)c1ccc(Nc2ncc(C(F)(F)F)c(Nc3ccccc3C(=O)NC)n2)cc1` (stereo not drawn) [Example 160, Diethyl [methoxy(4-{[4-{[2-(methylcarbamoyl)phenyl]amino}-5-(trifluoromethyl)pyrimidin-2-yl]amino}phenyl)methyl]phosphonate] gave a negative-log IC50 (pIC50) of more than 6.00.

The molecule `CCOP(=O)(Cc1ccc(Nc2ncc(C(F)(F)F)c(Nc3ccc(C#N)c4c3C(=O)N(C)C4)n2)cc1)OCC` [Example 161, Diethyl [4-({4-[(7-cyano-2-methyl-3-oxo-2,3-dihydro-1H-isoindol-4-yl)amino]-5-(trifluoromethyl)pyrimidin-2-yl}amino)benzyl]phosphonate] gave a pIC50 of more than 6.00.

In turn, `CCOP(=O)(Cc1ccc(Nc2ncc(C(F)(F)F)c(Nc3ccc(C#N)c4c3C(=O)N(C)C4)n2)c(OC)c1)OCC` [Example 162, Diethyl [4-({4-[(7-cyano-2-methyl-3-oxo-2,3-dihydro-1H-isoindol-4-yl)amino]-5-(trifluoromethyl)pyrimidin-2-yl}amino)-3-methoxybenzyl]phosphonate] had a pIC50 of more than 6.00.

`CCOP(=O)(Cc1ccc(Nc2ncc(C(F)(F)F)c(Nc3ccc(-c4cnn(CCOC)c4)cc3C(=O)NC)n2)cc1)OCC` [Example 163, Diethyl (4-{[4-({4-[1-(2-methoxyethyl)-1H-pyrazol-4-yl]-2-(methylcarbamoyl)phenyl}amino)-5-(trifluoromethyl)pyrimidin-2-yl]amino}benzyl) phosphonate] showed a pIC50 of more than 6.00.

With `CCOP(=O)(Cc1ccc(Nc2ncc(C(F)(F)F)c(Nc3ccc([C@H]4CC[C@H](OCC)CC4)c4c3C(=O)N(C)C4)n2)c(OC)c1)OCC` [Example 170, Diethyl (4-{[4-{[7-(trans-4-ethoxycyclohexyl)-2-methyl-3-oxo-2,3-dihydro-1H-isoindol-4-yl]amino}-5-(trifluoromethyl)pyrimidin-2-yl]amino}-3-methoxybenzyl)phosphonate], the negative logarithm of the IC50 (pIC50) is more than 6.00.

The molecule `CCOP(=O)(Cc1ccc(Nc2ncc(C(F)(F)F)c(Nc3ccc([C@H]4CC[C@H](O)CC4)cc3C(=O)N(C)C)n2)cc1)OCC` [Example 173, Diethyl (4-{[4-{[2-(dimethylcarbamoyl)-4-(trans-4-hydroxycyclohexyl)phenyl]amino}-5-(trifluoromethyl)pyrimidin-2-yl]amino}benzyl)phosphonate] had a negative-log IC50 (pIC50) of more than 6.00.

Consider `CCOP(=O)(Cc1ccc(Nc2ncc(C(F)(F)F)c(Nc3ccccc3C(=O)N3CCN(C)CC3)n2)cc1)OCC` [Example 177, Diethyl (4-{[4-({2-[(4-methylpiperazin-1-yl)carbonyl]phenyl}amino)-5-(trifluoromethyl)pyrimidin-2-yl]amino}benzyl)phosphonate], for which the pIC50 is more than 6.00.

Consider `CCOP(=O)(Cc1ccc(Nc2ncc(C(F)(F)F)c(Nc3ccccc3C(=O)N3CCCC3)n2)c(OC)c1)OCC` [Example 178, Diethyl (3-methoxy-4-{[4-{[2-(pyrrolidin-1-ylcarbonyl)phenyl]amino}-5-(trifluoromethyl)pyrimidin-2-yl]amino}benzyl)phosphonate], for which the negative-log IC50 (pIC50) is more than 6.00.

In turn, `CCOP(=O)(Cc1ccc(Nc2ncc(C(F)(F)F)c(Nc3ccccc3C(=O)N3CCN(C)CC3)n2)c(OC)c1)OCC` [Example 179, Diethyl (3-methoxy-4-{[4-({2-[(4-methylpiperazin-1-yl)carbonyl]phenyl}amino)-5-(trifluoromethyl)pyrimidin-2-yl]amino}benzyl)phosphonate] gave a pIC50 of more than 6.00.

In turn, `CCOP(=O)(Cc1ccc(Nc2ncc(C(F)(F)F)c(Nc3ccc(-c4cnn(CCN(CC)CC)c4)cc3C(=O)NC)n2)cc1)OCC` [Example 180, Diethyl (4-{[4-{[4-{1-[2-(diethylamino)ethyl]-1H-pyrazol-4-yl}-2-(methylcarbamoyl)phenyl]amino}-5-(trifluoromethyl)pyrimidin-2-yl]amino}benzyl)phosphonate] showed a pIC50 of more than 6.00.

In the case of `CCOP(=O)(Cc1ccc(Nc2ncc(C(F)(F)F)c(Nc3ccc(-c4nn[nH]n4)c4c3C(=O)N(C)C4)n2)cc1)OCC` [Example 181, Diethyl (4-{[4-{[2-methyl-3-oxo-7-(2H-tetrazol-5-yl)-2,3-dihydro-1H-isoindol-4-yl]amino}-5-(trifluoromethyl)pyrimidin-2-yl]amino}benzyl)phosphonate], the pIC50 is more than 6.00.

For the molecule `CCOP(=O)(Cc1ccc(Nc2ncc(C(F)(F)F)c(Nc3cccc4c3C(=O)N(O)C4)n2)c(OC)c1)OCC` [Example 186, Diethyl [4-({4-[(2-hydroxy-3-oxo-2,3-dihydro-1H-isoindol-4-yl)amino]-5-(trifluoromethyl)pyrimidin-2-yl}amino)-3-methoxybenzyl]phosphonate trifluoroacetate], the pIC50 was more than 6.00.

In turn, `CCOP(=O)(Cc1ccc(Nc2ncc(C(F)(F)F)c(Nc3cccc4c3C(=O)N(OC)C4)n2)c(OC)c1)OCC` [Example 187, Diethyl [3-methoxy-4-({4-[(2-methoxy-3-oxo-2,3-dihydro-1H-isoindol-4-yl)amino]-5-(trifluoromethyl)pyrimidin-2-yl}amino)benzyl]phosphonate trifluoroacetate] had a negative-log IC50 (pIC50) of more than 6.00.

In turn, `CCOP(C)(=O)Cc1ccc(Nc2ncc(C(F)(F)F)c(Nc3ccc([C@H]4CC[C@@](C)(O)CC4)c4c3C(=O)N(C)C4)n2)c(OC)c1` (stereo partly drawn) [Example 200, Ethyl (4-{[4-{[7-(cis-4-hydroxy-4-methylcyclohexyl)-2-methyl-3-oxo-2,3-dihydro-1H-isoindol-4-yl]amino}-5-(trifluoromethyl)pyrimidin-2-yl]amino}-3-methoxybenzyl)methylphosphinate] showed a pIC50 of more than 6.00.

`CCOP(=O)(Cc1ccc(Nc2ncc(C(F)(F)F)c(Nc3ccc(OC)c4c3C(=O)N(C)C4)n2)cc1)OCC` [Example 205, Diethyl [4-({4-[(7-methoxy-2-methyl-3-oxo-2,3-dihydro-1H-isoindol-4-yl)amino]-5-(trifluoromethyl)pyrimidin-2-yl}amino)benzyl]phosphonate] had a negative-log IC50 (pIC50) of more than 6.00.

For the molecule `CCOc1ccc(Nc2nc(Nc3ccc(CP(=O)(OCC)OCC)cc3OC)ncc2C(F)(F)F)c2c1CN(C)C2=O` [Example 210, Diethyl [4-({4-[(7-ethoxy-2-methyl-3-oxo-2,3-dihydro-1H-isoindol-4-yl)amino]-5-(trifluoromethyl)pyrimidin-2-yl}amino)-3-methoxybenzyl]phosphonate], the pIC50 is more than 6.00.

Values taken from patent US9096624B2 (OSI Pharmaceuticals, LLC, priority 2009, dated 2015).
